Results reported in patent US7638517B2, “3-Amino-1-arylpropyl azaindoles and uses thereof” (Roche Palo Alto LLC, priority 2005, dated 2009).

Columns and labels:
[1] = target: T1, human serotonin transporter (hSERT) (Homo sapiens, UniProt P31645); assay: Screening for human serotonin transporter (hSERT) antagonists using a scintillation proximity assay, competition with [3H]-Citalopram; assay type: binding; conditions: hSERT SPA, membranes of HEK-293 cells expressing recombinant hSERT
T1 construct: expressed in transfected cells; host or cells: HEK-293
Experimental: The screening assay of this example was used to determine the affinity of ligands at the hSERT transporter by competition with [^3H]-Citalopram.
Scintillation Proximity Assay (SPA) works by bringing radioligand within close proximity to the bead's scintillant to stimulate light emission. In this assay, the receptor-containing membranes were pre-coupled to the SPA beads and the binding of the appropriate radioligand to the transporter was measured. The light emission was proportional to the amount of bound radioligand. Unbound radioligand produced no signal as a result of distant proximity to scintillant (lack of energy transfer). […]
(§1) Cell membranes were prepared using a membrane preparation buffer of 50 mM TRIS (pH 7.4). […] After a second centrifugation, the pellet was re-homogenized and brought to a final volume determined during the assay. […]
The % inhibition was calculated for each compound tested [(Compound counts per minute (CPM) at maximum concentration-Non-Specific CPM)/Total CPM*100]. […]
[formula] where max=total binding, min=non specific binding, x=concentration (M) of the tested compound and n=Hill slope. The inhibition dissociation constant (Ki) of each compound was determined according to the method of Cheng-Prusoff and then converted into negative logarithm (pKi) of the Ki.

[2] = target: T2, human norepinephrine transporter (hNET) (Homo sapiens, UniProt P23975); assay: Screening for compounds active at human norepinephrine transporter (hNET) using a scintillation proximity assay, competition with [3H]-Nisoxetine; assay type: binding; conditions: hNET SPA, membranes of HEK-293 cells expressing recombinant hNET
T2 construct: expressed in transfected cells; host or cells: HEK-293 (Clone: HEK-hNET #2)
Experimental: This assay was used to determine the affinity of ligands for the hNET transporter by competition with [^3H]-Nisoxetine. As in the hSERT assay of the above example, receptor-containing membranes were pre-coupled to the SPA beads and the binding of the appropriate radioligand to the transporter was measured. The light emission was proportional to the amount of bound radioligand, with unbound radioligand producing no signal.
HEK-293 cells (Tatsumi et al., Eur. J. Pharmacol. 1997, 30, 249-258) stably expressing recombinant hNET (Clone: HEK-hNET #2) were maintained with media (DMEM hi glucose with 10% FBS, 300 μg/ml G418 and 2 mM L-Glutamine) and incubated at 37° C. with 5% CO2. Cells were released from culture flasks using PBS for 1-2 minutes. […]
as §1
^3[H] […] The mixtures were allowed to stand at room temperature for one hour, and were then counted on a Packard TopCount LCS, a generic SPA counting protocol settings (Energy Range: Low, Efficiency Mode: Normal, Region A: 1.50-35.00, Region B: 1.50-256.00, Count Time (min.): 0.40, Background Subtract: none, Half-Life Correction: no, Quench Indicator: tSIS, Platemap blank subtraction: No, Cross talk reduction: Off). […]

T2 sequence (P23975 whole entry): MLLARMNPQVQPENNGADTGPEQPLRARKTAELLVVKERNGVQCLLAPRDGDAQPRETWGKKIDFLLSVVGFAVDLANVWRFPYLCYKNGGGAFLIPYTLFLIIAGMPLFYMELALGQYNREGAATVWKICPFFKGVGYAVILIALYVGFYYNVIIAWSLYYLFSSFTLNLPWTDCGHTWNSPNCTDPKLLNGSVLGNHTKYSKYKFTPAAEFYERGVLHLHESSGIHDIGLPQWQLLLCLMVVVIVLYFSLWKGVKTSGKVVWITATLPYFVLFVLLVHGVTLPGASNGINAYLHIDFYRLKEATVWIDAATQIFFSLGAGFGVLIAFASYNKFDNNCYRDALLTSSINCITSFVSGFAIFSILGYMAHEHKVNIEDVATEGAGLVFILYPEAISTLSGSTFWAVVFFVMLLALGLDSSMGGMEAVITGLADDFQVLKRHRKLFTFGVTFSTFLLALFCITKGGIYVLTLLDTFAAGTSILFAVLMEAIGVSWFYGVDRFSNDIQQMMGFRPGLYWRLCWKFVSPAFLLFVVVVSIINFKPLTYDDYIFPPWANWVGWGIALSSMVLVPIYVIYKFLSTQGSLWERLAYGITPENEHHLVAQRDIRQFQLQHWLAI
T1 sequence (P31645 whole entry): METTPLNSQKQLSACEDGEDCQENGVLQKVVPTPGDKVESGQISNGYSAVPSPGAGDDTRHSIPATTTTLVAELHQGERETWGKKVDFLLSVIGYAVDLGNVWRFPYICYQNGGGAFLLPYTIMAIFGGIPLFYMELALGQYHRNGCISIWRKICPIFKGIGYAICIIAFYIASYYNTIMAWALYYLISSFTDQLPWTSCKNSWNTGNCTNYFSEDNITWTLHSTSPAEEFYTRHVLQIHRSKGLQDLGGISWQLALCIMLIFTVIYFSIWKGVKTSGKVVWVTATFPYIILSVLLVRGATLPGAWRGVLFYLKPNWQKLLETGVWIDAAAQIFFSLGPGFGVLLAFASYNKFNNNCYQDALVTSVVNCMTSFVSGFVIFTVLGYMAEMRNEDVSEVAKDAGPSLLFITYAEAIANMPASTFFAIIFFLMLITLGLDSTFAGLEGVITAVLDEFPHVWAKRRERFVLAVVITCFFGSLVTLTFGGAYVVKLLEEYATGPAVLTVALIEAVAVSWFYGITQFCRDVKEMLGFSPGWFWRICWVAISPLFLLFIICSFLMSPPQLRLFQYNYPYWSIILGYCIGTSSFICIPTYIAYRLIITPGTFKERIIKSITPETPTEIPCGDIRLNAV

IC50 [1]: ~1.78 nM
IC50 [2]: ~17.8 nM
SMILES: CNCC[C@@H](c1ccccc1)c1c[nH]c2nccc(OC)c12 [compound 23, [(S)-3-(4-Methoxy-1H-pyrrolo[2,3-b]pyridin-3-yl)-3-phenyl-propyl]-methyl-amine]
